Reference: the NIST ThermoML archive (doi:10.1021/je700029q)

Tests used:
[1] = refractive index (Na D-line) (dimensionless); xn = mol fraction of the nth substance listed; details: 298.15 K, 101 kPa, Liquid
[2] = xn = mol fraction of the nth substance listed; details: 101 kPa, Liquid

CCOS(=O)(=O)[O-].CCn1cc[n+](C)c1 [1-ethyl-3-methylimidazolium ethyl sulfate] + CO
[1]
Details | refractive index
x2 = 0 | 1.4794
x2 = 0.1346 | 1.47491
x2 = 0.2595 | 1.47006
x2 = 0.3267 | 1.46675
x2 = 0.4741 | 1.45742
x2 = 0.5701 | 1.44913
x2 = 0.6664 | 1.43808
x2 = 0.7757 | 1.42043
x2 = 0.8294 | 1.4078
x2 = 0.923 | 1.37377
x2 = 0.9626 | 1.35299
x2 = 0.9917 | 1.33319

[2]
Details | mass density, 298.15 K [kg/m3] | mass density, 313.15 K [kg/m3] | mass density, 328.15 K [kg/m3] | speed of sound, 298.15 K [m/s] | speed of sound, 313.15 K [m/s] | speed of sound, 328.15 K [m/s] | viscosity, 298.15 K [mPa·s] | viscosity, 313.15 K [mPa·s] | viscosity, 328.15 K [mPa·s]
x2 = 0 | 1237.6 | 1227.5 | 1217.5 | 1679 | 1641 | 1605 | 97.58 | 50.01 | 29.18
x2 = 0.1346 | 1224.2 | 1214.1 | 1204 | 1663 | 1627 | 1588 | 60.93 | 33.83 | 20.92
x2 = 0.2595 | 1209.1 | 1199 | 1188.6 | 1640 | 1603 | 1564 | 39.32 | 23.4 | 15.25
x2 = 0.3267 | 1199.4 | 1189.1 | 1178.8 | 1624 | 1587 | 1549 | 30.59 | 18.94 | 12.65
x2 = 0.4741 | 1171.9 | 1161.3 | 1150.7 | 1583 | 1546 | 1506 | 16.38 | 11.02 | 7.887
x2 = 0.5701 | 1146.8 | 1135.9 | 1125.1 | 1547 | 1509 | 1469 | 10.12 | 7.173 | 5.387
x2 = 0.6664 | 1113.9 | 1102.9 | 1091.8 | 1500 | 1461 | 1420 | 6.45 | 4.776 | 3.661
x2 = 0.7757 | 1059 | 1047.5 | 1035.9 | 1423 | 1382 | 1340 | 3.232 | 2.508 | 2.02
x2 = 0.8294 | 1021.1 | 1009.2 | 997.3 | 1371 | 1330 | 1287 | 2.351 | 1.86 | 1.501
x2 = 0.923 | 924.9 | 912.2 | 899.3 | 1251 | 1207 | 1162 | 1.639 | 0.901 | 0.666
x2 = 0.9626 | 863.7 | 850.4 | 836.9 | 1187 | 1137 | 1090 | 1.263 | 0.66 | 0.551
x2 = 0.9917 | 806 | 792.2 | 777.7 | 1123 | 1076 | 1029 | 1.039 | 0.516 | 0.43
